Data from US20070111328A1, “Scintillation proximity assay for the identification of P-glycoprotein modulators” (priority 2005, published 2007).

Key:
[1] = biological target: T1, P-glycoprotein (P-gp) (Homo sapiens, UniProt P08183); assay: SPA saturation binding of [3H]-vinblastine to P-gp (KB-V1 cell membranes); design: endogenous in cells; host or cells: KB-V1 cells (multidrug-resistant subclone of KB-3-1, HeLa-derived); sucrose-gradient purified plasma membranes; settings: [3H]-vinblastine 5 to 55 nM, specific binding fitted with Prism; read-out: KD (binding dissociation constant)
T1 sequence (P08183 whole entry): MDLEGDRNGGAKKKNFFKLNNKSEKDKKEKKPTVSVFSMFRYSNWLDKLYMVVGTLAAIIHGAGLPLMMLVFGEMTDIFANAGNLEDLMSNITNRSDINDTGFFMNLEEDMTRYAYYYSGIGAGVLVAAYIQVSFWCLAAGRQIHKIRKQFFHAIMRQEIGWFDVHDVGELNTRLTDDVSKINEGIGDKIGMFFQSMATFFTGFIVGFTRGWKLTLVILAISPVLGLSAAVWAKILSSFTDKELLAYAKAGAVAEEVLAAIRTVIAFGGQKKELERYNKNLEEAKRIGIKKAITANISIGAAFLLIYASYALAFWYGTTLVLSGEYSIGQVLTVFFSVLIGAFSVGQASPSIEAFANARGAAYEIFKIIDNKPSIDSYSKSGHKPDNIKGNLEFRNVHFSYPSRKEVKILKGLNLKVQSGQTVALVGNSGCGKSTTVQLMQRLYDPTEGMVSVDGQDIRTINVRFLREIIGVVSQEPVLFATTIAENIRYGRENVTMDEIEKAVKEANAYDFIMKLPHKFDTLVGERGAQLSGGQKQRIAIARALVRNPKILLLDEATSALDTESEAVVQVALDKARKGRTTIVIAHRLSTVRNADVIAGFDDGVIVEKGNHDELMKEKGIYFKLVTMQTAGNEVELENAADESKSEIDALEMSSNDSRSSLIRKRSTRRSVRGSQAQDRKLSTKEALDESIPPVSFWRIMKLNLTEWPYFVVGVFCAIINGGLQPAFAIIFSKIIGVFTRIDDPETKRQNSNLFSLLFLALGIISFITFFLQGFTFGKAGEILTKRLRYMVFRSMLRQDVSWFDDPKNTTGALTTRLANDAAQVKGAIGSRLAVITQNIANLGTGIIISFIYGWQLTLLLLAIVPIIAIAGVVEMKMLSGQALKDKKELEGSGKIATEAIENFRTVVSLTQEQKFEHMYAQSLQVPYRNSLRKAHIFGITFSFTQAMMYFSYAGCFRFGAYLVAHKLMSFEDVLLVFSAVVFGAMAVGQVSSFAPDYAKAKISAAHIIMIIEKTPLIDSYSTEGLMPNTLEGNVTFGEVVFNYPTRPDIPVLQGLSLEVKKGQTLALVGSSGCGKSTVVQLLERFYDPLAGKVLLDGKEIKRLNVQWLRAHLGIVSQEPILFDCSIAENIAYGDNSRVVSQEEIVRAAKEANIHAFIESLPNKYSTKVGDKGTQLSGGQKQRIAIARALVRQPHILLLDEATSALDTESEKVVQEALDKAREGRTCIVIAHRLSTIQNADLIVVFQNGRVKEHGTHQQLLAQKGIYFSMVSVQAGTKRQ
Description: The specific signal values versus the amount of radioligand was fitted to the equation using the Prism software (GraphPad Software Inc, San Diego, Calif.) as the following: [formula] where Bmax is the maximal binding, [L] is a ligand concentration, and KD is the binding dissociation constant. The fitting gave the KD value of 4 nM, which is in agreement with literature data.

[2] = biological target: T1, P-glycoprotein (P-gp); assay: Scintillation proximity assay (SPA): competition with [3H]vinblastine binding to P-gp in KB-V1 cell membranes; settings: mean of triplicates; for effect of test compound on P-gp specific binding signal: test compound 10 μM final concentration, FIG. 8
Description: The samples were incubated for an additional 3 to 24-hours.
The methods described herein are based on the scintillation proximity assay (SPA) technique and its use to detect signal changes in the presence of a test compound. […] The signal should be reduced when the test compound is a P-gp substrate and/or inhibitor because of competition on the binding site or inhibition of the binding.

Row | Compound | effect of test compound on P-gp specific binding signal [2] | other results
1 | CC[C@]1(O)C[C@@H]2CN(CCc3c([nH]c4ccccc34)[C@@](C(=O)OC)(c3cc4c(cc3OC)N(C)[C@H]3[C@@](O)(C(=O)OC)[C@H](OC(C)=O)[C@]5(CC)C=CCN6CC[C@]43[C@@H]65)C2)C1 [[^3H]-vinblastine] |  | Kd [1]: 0.004 µM
2 | Cn1c(=O)c2c(ncn2C)n(C)c1=O [caffeine] | no impact on the P-gp signal | 
3 | COc1cccc2c1C(=O)c1c(O)c3c(c(O)c1C2=O)C[C@@](O)(C(=O)CO)C[C@@H]3O[C@H]1C[C@H](N)[C@H](O)[C@H](C)O1 [doxorubicin] | did not appear to interfere with the P-gp signal | 
4 | CN(Cc1cnc2nc(N)nc(N)c2n1)c1ccc(C(=O)N[C@@H](CCC(=O)O)C(=O)O)cc1 [methotrexate] | did not appear to interfere with the P-gp signal | 
5 | Ivermectin |  | IC50 ([2]; read-out: IC50 values determined by SPA, inhibition of [3H]vinblastine binding to P-gp, KB-V1 membranes, WGA-Ysi beads, PRISM fit): 0.361 µM
